Test results from patent US8507535B2 (Hoffmann-La Roche Inc., priority 2010, dated 2013).
Where two headings read alike, the source gives them in different places.

Key:
[1] = phase II trial, cited from earlier work
human NK3 receptor = human NK3 receptor (Homo sapiens (Human), UniProt P29371); assay: [3H]SR142801 competition binding assay; details: membranes from HEK293 cells transiently expressing recombinant human NK3 receptor, [3H]SR142801 radioligand
Method: [^3H]SR142801 Competition Binding Assay
hNK3 receptor binding experiment were performed using [^3H]SR142801 (Catalog No. TRK1035, specific activity: 74.0 Ci/mmol, Amersham, GE Healthcare UK limited, Buckinghamshire, UK) and membrane isolated from HEK293 cells transiently expressing recombinant human NK3 receptor. After thawing, the membrane homogenates were centrifuged at 48,000×g for 10 min at 4° C., the pellets were resuspended in the 50 mM Tris-HCl, 4 mM MnCl2, 1 μM phosphoramidon, 0.1% BSA binding buffer at pH 7.4 to a final assay concentration of 5 μg protein/well. For inhibition experiments, membranes were incubated with [^3H]SR142801 at a concentration equal to KD value of radioligand and 10 concentrations of the inhibitory compound (0.0003-10 μM) (in a total reaction volume of 500 μl) for 75 min at room temperature (RT). At the end of the incubation, membranes were filtered onto unitfilter (96-well white microplate with bonded GF/C filter preincubated 1 h in 0.3% PEI+0.3% BSA, Packard BioScience, Meriden, Conn.) with a Filtermate 196 harvester (Packard BioScience) and washed 4 times with ice-cold 50 mM Tris-HCl, pH 7.4 buffer. Nonspecific binding was measured in the presence of 10 μM SB222200 for both radioligands. The radioactivity on the filter was counted (5 min) on a Packard Top-count microplate scintillation counter with quenching correction after addition of 45 μl of microscint 40 (Can berra Packard S. A., Zurich, Switzerland) and shaking for 1 h. Inhibition curves were fitted according to the Hill equation: y=100/(1+(x/IC50)^nH), where nH=slope factor using Excel-fit 4 software (Microsoft). IC50 values were derived from the inhibition curve and the affinity constant (Ki) values were calculated using the Cheng-Prussoff equation Ki=IC50/(1+[L]/KD) where [L] is the concentration of radioligand and KD is its dissociation constant at the receptor, derived from the saturation isotherm. All experiments were performed in duplicate and the mean±standard error (SEM) of the individual Ki values was calculated.

Chain of human NK3 receptor (P29371 whole entry): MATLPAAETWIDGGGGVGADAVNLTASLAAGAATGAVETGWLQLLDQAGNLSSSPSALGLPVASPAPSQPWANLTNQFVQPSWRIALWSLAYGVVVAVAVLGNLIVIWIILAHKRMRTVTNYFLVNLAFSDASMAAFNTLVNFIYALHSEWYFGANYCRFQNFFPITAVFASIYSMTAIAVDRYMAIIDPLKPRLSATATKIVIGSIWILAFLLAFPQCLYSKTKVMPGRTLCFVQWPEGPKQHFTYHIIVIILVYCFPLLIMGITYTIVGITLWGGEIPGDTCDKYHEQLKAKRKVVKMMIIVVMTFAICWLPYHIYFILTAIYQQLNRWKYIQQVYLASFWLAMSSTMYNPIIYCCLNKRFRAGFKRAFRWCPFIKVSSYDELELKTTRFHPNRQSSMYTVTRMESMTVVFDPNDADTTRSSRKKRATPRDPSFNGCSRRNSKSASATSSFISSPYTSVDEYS

SMILES | Ki (human NK3 receptor; read-out: Ki (uM) hNK3) | further results
CC(=O)N(C)C1(c2ccccc2)CCN(CCC[C@]2(c3ccc(Cl)c(Cl)c3)CCCN(C(=O)c3ccccc3)C2)CC1 [SR 142,801, Osanetant] |  | activity on positive symptoms of schizophrenia ([1]; altered behaviour, delusion, hallucinations, extreme emotions, excited motor activity, incoherent speech): active on positive symptoms of schizophrenia; activity on negative symptoms of schizophrenia ([1]; depression, anhedonia, social isolation, memory and attention deficits): inactive in the treatment of negative symptoms
C[C@]1(COc2ccc(Cl)cn2)CN(C(=O)C2CCN(c3ccc(C(F)(F)F)cn3)CC2)C[C@@H]1c1ccc(Cl)cc1 (racemic) [Example 22, [(3RS,4RS)-4-(4-Chloro-phenyl)-3-(5-chloro-pyridin-2-yloxymethyl)-3-methyl-pyrrolidin-1-yl]-(5′-trifluoromethyl-3,4,5,6-tetrahydro-2H-[1,2′]bipyridinyl-4-yl)-methanone] |  | Ki (human NK3 receptor; second half of table, head prints nM, read-out: Ki (nM) hNK3): 27.2 nM
Cc1noc(-c2ccc(C(=O)N3C[C@H](c4ccc(Cl)cc4)[C@@](C)(COc4ccc(Cl)cn4)C3)cc2)n1 (racemic) [Example 7, [(3RS,4RS)-4-(4-Chloro-phenyl)-3-(5-chloro-pyridin-2-yloxymethyl)-3-methyl-pyrrolidin-1-yl]-[4-(3-methyl-[1,2,4]oxadiazol-5-yl)-phenyl]-methanone] | 4.3 nM | 

Continued, in another order:

Ki (human NK3 receptor; read-out: Ki (uM) hNK3) | SMILES | further results
87.4 nM | C[C@]1(COc2ccc(Cl)cn2)CN(C(=O)C2CCOCC2)C[C@@H]1c1ccc(Cl)cc1 (racemic) [Example 10, [(3RS,4RS)-4-(4-Chloro-phenyl)-3-(5-chloro-pyridin-2-yloxymethyl)-3-methyl-pyrrolidin-1-yl]-(tetrahydro-pyran-4-yl)-methanone] | 
15 nM | C[C@]1(COc2ccc(Cl)cn2)CN(C(=O)C2CCN(C3CCCCC3)CC2)C[C@@H]1c1ccc(Cl)cc1 (racemic) [Example 14, [(3RS,4RS)-4-(4-Chloro-phenyl)-3-(5-chloro-pyridin-2-yloxymethyl)-3-methyl-pyrrolidin-1-yl]-(1-cyclohexyl-piperidin-4-yl)-methanone] | 
